This is an account of results in ChEMBL document CHEMBL1125190, “Synthesis and anticancer and antiviral activities of various 2'- and 3'-methylidene-substituted nucleoside analogues and crystal structure of 2'-deoxy-2'-methylidenecytidine hydrochloride” (J Med Chem, 1991).

Molecules are shown by their SMILES. Active and inactive are the calls of the source. No cut-off for these calls is given here.

Test [1] has as its system CCRF S-180. Description: Concentration required to inhibit replication of S-180 cell lines by 50% after 72 hr incubation. In kind it is functional. The conditions noted are these: Mus musculus, CCRF S-180, 72 h; read-out: ED50 (the source's name).
Test [2] deals with HSV-2. Kind of test: Concentration required to inhibit 90% of virus yield during 24-h growth period in HSV-2 cell lines. The format is functional, Human alphaherpesvirus 2.
Test [3] deals with P388. Kind of test: Concentration required to inhibit replication of P388 cell lines by 50% after 72 hr incubation. The format is functional. The conditions noted are these: Mus musculus, P388, 72 h; read-out: ED50 (the source's name).
Test [4] relates to CCRF-CEM. Kind of test: Concentration required to inhibit replication of CCRF-CEM cell lines by 50% after 72 hr incubation. The format is functional. The conditions noted are these: Homo sapiens, read-out: ED50 (the source's name).
Test [5] has as its system Human alphaherpesvirus 1. Description: Concentration required to inhibit 90% of virus yield during 24-h growth period in HSV-1 cell lines. In kind it is functional.
Test [6] deals with L1210. Kind of test: Concentration required to inhibit replication of L1210 cell lines by 50% after 72 hr incubation. The format is functional. The conditions noted are these: Mus musculus, L1210, 72 h; read-out: ED50 (the source's name).
The subject of test [7] is L1210. Description: (§1) Ratio of survival time of treated to control mice at 25 mg/kg. The format is functional, Mus musculus.
Test [8] concerns L1210. Description: (§2) Average survival time includes only those mice that died prior to day 60 at 75 mg/kg. The format is functional, Mus musculus.
The subject of test [9] is L1210. Description: (§3) Average survival time includes only those mice that died prior to day 60 at 50 mg/kg. In kind it is functional, Mus musculus.
Test [10] deals with L1210. Kind of test: (§4) Average survival time includes only those mice that died prior to day 60 at 25 mg/kg. The format is functional, Mus musculus.
Test [11] concerns L1210. Description: (§5) Ratio of survival time of treated to control mice at 50 mg/kg. In kind it is functional, Mus musculus.
The subject of test [12] is L1210. Kind of test: (§6) Ratio of survival time of treated to control mice at 75 mg/kg. The format is functional, Mus musculus.
Test [13] relates to CCRF-CEM. Description: Concentration required to inhibit replication of CCRF-CEM deoxycytidine kinase deficient variant CCRF-CEM(dCK-). The format is functional. The conditions noted are these: Homo sapiens, read-out: ED50 (the source's name).
Test [14] deals with Mus musculus. The description is as §5. In kind it is functional.
In test [15] the test system is Mus musculus. The test is described as §4. The format is functional.
For test [16], the system named is Mus musculus. Kind of test: Long time survivors are the number mice that survived for >60 days relative to the number of treated mice 25 mg/kg; 0 / 5. Also on record: dose 25 mg/kg. In kind it is functional, organism-based.
Test [17] deals with Mus musculus. Description: Death due to toxicity occurring at a maximum body weight decrease of 10 to 22% from the average post injection body weight at 25 mg/kg; 2 / 5. Also on record: dose 25 mg/kg. In kind it is functional, organism-based.
The test system of test [18] is Mus musculus. Described as §1. The format is functional.
Test [19] concerns Mus musculus. Description: Death due to toxicity occurring at a maximum body weight decrease of 10 to 22% from the average post injection body weight at 50 mg/kg; 5 / 5. Set-up: dose 50 mg/kg. In kind it is functional, organism-based.
In test [20] the test system is Mus musculus. The description is as §2. The format is functional.
The test system of test [21] is Mus musculus. The test is described as §3. In kind it is functional.
The test system of test [22] is Mus musculus. Kind of test: Long time survivors are the number mice that survived for >60 days relative to the number of treated mice at 50 mg/kg; 0 / 5. The format is functional, organism-based. Also on record: dose 50 mg/kg.
In test [23] the test system is Mus musculus. Description: Death due to toxicity occurring at a maximum body weight decrease of 10 to 22% from the average post injection body weight at 75 mg/kg; 5 / 5. The format is functional, organism-based. Also on record: dose 75 mg/kg.
For test [24], the system named is Mus musculus. Description: Long time survivors are the number mice that survived for >60 days relative to the number of treated mice at 75 mg/kg; 0 / 5. The format is functional, organism-based. Also on record: dose 75 mg/kg.
Test [25] has as its system Mus musculus. Described as §6. In kind it is functional.
Test [26] deals with Mus musculus. Kind of test: T/C*100 represents the ratio of survival time of treated to control mice *100 at 75 mg/kg. The format is functional.
The subject of test [27] is Mus musculus. Description: T/C*100 represents the ratio of survival time of treated to control mice *100 at 50 mg/kg. In kind it is functional.

`C=C1[C@H](n2cc(C)c(N)nc2=O)O[C@H](CO)[C@H]1O`: the EC50 is greater than 100 µM in [1], greater than 100 µM in [3], 22 µM in [4] and greater than 100 µM in test [6]. Also, the ID90 was determined as 125 µM in test [2] and 32 µM in test [5].
On to `C=C1[C@H](n2cc(F)c(N)nc2=O)O[C@H](CO)[C@H]1O`, for which the T/C in [7] was determined as 316; in test [11] it was 279; in test [12] it was 243. Further, the EC50 was 1.5 µM in test [1]; 0.6 µM in test [3]; 0.05 µM in test [4]; 1.2 µM in [6]; 330 µM in test [13]. The figures for the “Average survival (days)” value in test [8], in [9] and in [10] were 18.5, 21.2 and 24, respectively. In addition, the ID90 turned out to be 5 µM in test [2] and 50 µM in [5].
With `Nc1ccn([C@@H]2O[C@H](CO)[C@@H](O)[C@@H]2O)c(=O)n1` [CYTARABINE], the EC50 was found to be 0.2 µM in test [1]; 0.02 µM in [3]; 0.006 µM in [4]; 0.05 µM in test [6]; 120 µM in [13]. Further, the T/C in test [14] is given as 126; in test [18], 258; in test [25] it was 111. In addition, the “Average survival (days)” value worked out at 19.7 in [15], 8.4 in test [20] and 9.6 in [21]. The Long-term survivors result in [16], in test [22] and in test [24] was “inactive” each time. For the same compound, the Toxic deaths result in test [17] was “Partially active”. In addition, the Toxic deaths result in [19] and in test [23] was “Active” throughout.
As for `C=C1[C@H](n2ccc(=O)[nH]c2=O)O[C@H](CO)[C@H]1O`, the EC50 in test [1], in [3], in test [4] and in [6] was greater than 100 µM throughout. Also, the ID90 in [2] and in test [5] was 50 µM in each case.
`C=C1C(CO)OC(n2ccc(N)nc2=O)C1O` (stereo not given): the EC50 in [1], in [3], in test [4] and in [6] was greater than 100 µM throughout. The ID90 in test [2] and in test [5] was greater than 250 µM throughout.
As to `C=C1[C@H](n2cc(F)c(=O)[nH]c2=O)O[C@H](CO)[C@H]1O`, the EC50 in [1] was 6.5 µM; in [3], greater than 100 µM; in test [4], 30 µM; in test [6] it was 22 µM. The ID90 in [2] and in test [5] was greater than 250 µM in each case.
Consider `C=C1C(n2ccc(N)nc2=O)O[C@H](CO)[C@@H]1O` (stereo not given in full), for which the values for the T/C in test [26], in test [18] and in test [27] were 273, 284 and 276, respectively. Also, the EC50 in test [1] was 1.5 µM; in test [3] it was 0.4 µM; in [4] it was 0.03 µM; in test [6], 0.3 µM; in [13] it was 77 µM. In addition, the “Average survival (days)” value in test [15] worked out at 21.6; in test [20] it was 20.8; in test [21], 21. The ID90 was 5 µM in [2] and 26 µM in test [5].
For the compound `C=C1C(CO)OC(n2ccc(=O)[nH]c2=O)C1O` (stereo not given), the EC50 in test [1], in [3], in test [4] and in [6] was greater than 100 µM throughout.
On to `C=C1[C@H](n2cc(C)c(=O)[nH]c2=O)O[C@H](CO)[C@H]1O`, for which the EC50 is greater than 100 µM in [1], greater than 100 µM in [3], 10 µM in test [4] and greater than 100 µM in test [6].
